Here are results for 17 compounds from ChEMBL document CHEMBL4152285, “Structure-based design and profiling of novel 17β-HSD14 inhibitors” (Eur J Med Chem, 2018).

Series [1] concerns the target T1, 17-beta-hydroxysteroid dehydrogenase type 1 (Homo sapiens) (UniProt P14061).
T1 sequence (whole entry): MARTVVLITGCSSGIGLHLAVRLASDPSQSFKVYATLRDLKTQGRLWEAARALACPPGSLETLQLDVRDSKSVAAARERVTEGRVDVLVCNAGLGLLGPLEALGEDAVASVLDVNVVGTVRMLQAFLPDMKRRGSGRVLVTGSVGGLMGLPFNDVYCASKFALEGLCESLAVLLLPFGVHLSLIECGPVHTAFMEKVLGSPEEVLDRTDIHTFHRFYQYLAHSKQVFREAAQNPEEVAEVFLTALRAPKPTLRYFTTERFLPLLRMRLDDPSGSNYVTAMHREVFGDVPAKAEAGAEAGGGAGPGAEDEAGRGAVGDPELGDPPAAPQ
The series is described as follows: Inhibition of human placental cytosolic 17beta-HSD1 using [2,4,6,7-3H]-labeled E1/E1 as substrate and NADH at 1 uM after 10 mins by HPLC based radioflow detection method.

Series [2] in a line: Solubility of the compound in PBS at 200 uM at pH 7.4 measured after 24 hrs. Type of series: physicochemical.
Series [3] concerns the target T2, 17-beta-hydroxysteroid dehydrogenase 14 (Homo sapiens, UniProt Q9BPX1).
T2 sequence (Q9BPX1 whole entry): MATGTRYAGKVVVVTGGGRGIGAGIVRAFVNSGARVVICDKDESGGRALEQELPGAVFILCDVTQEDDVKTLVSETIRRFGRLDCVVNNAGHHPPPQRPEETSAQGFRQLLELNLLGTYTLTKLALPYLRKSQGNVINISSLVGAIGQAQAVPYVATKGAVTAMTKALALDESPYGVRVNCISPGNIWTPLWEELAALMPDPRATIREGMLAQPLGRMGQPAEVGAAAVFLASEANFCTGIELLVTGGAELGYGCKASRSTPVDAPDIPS
The series is described as follows: Binding affinity to recombinant 17beta-HSD14 (unknown origin) expressed in Escherichia coli BL21 pLysS strain using E2 as substrate in presence of NAD measured continuously for 15 mins by fluorimetric method.

The target of series [4] is T3, 17-beta-hydroxysteroid dehydrogenase type 2 (Homo sapiens) (UniProt P37059).
T3 sequence (whole entry): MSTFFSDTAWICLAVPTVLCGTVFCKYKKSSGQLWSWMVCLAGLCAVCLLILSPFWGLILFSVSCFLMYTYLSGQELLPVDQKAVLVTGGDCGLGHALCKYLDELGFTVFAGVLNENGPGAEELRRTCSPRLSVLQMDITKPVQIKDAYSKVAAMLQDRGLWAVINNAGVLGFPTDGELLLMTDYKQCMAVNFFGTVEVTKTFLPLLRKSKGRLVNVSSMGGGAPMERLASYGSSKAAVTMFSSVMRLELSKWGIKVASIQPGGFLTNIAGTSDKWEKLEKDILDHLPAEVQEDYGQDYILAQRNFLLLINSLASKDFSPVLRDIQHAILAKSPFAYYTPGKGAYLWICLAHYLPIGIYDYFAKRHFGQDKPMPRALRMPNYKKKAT
The series is described as follows: Inhibition of human placental cytosolic 17beta-HSD2 using [2,4,6,7-3H]-labeled E2/E2 as substrate and NADH at 1 uM after 10 mins by HPLC based radioflow detection method.

The target of series [5] is T4, 3-hydroxyacyl-CoA dehydrogenase type-2 (Homo sapiens) (UniProt Q99714).
T4 sequence (whole entry): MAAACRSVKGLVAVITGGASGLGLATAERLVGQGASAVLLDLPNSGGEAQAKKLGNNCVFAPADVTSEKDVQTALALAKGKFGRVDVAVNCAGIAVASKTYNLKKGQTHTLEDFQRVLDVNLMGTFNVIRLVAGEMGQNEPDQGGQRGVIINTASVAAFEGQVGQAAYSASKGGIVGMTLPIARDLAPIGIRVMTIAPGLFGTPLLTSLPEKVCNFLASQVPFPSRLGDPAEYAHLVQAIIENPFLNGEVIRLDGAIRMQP
The series can be described thus: Inhibition of human full length N-terminal GST-tagged 17beta-HSD10 expressed in Escherichia coli BL21 DE3 Codon plus using [6,7-3H]-labeled E2/E2 as substrate and NADH at 1 uM after 30 mins by HPLC based radioflow detection method.

Series [6] deals with T5, 17-beta-hydroxysteroid dehydrogenase 14 (Homo sapiens) (UniProt Q9BPX1).
T5 sequence (whole entry): T2 sequence (Q9BPX1 whole entry)
The series is described as follows: Inhibition of recombinant 17beta-HSD14 (unknown origin) expressed in Escherichia coli BL21 pLysS strain at 2 uM using E2 as substrate in presence of NAD measured continuously for 15 mins by fluorimetric method.

For series [7], the target named is T6, Estrogen receptor (Homo sapiens, UniProt P03372).
T6 sequence (P03372 whole entry): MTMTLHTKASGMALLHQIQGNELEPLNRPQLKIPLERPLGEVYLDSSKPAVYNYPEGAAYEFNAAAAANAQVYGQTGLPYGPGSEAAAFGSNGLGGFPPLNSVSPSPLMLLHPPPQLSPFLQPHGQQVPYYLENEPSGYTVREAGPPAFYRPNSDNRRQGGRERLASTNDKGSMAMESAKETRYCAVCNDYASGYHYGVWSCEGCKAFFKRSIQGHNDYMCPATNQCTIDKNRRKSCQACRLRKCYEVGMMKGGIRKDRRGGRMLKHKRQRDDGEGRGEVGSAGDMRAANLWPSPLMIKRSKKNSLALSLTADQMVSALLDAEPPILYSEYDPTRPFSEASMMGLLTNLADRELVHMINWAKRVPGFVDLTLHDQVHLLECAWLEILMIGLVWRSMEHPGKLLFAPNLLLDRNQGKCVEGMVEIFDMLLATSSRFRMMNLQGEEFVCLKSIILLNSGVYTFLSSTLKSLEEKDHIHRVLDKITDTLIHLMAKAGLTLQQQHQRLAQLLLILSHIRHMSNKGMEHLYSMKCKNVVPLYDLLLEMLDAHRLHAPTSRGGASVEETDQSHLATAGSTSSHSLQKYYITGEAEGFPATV
The series can be described thus: Agonist activity at ERalpha (unknown origin) expressed in human U2OS cells after 24 hrs by luciferase reporter gene assay. It counts as cell-based. (In a reporter assay the amount or activity of a reporter protein is the signal.)

Series [8] is described as follows: Cytotoxicity against HEK293 cells assessed as cell survival at 20 uM after 72 hrs by MTT assay relative to control. The note with it: human, read-out: Survival. It counts as cell-based. For orientation: Tetrazolium assays rely on reduction of a dye to a coloured formazan, in cell work by metabolically active cells.
Series [9] in a line: Cytotoxicity against HEK293 cells assessed as decrease in cell viability after 72 hrs by MTT assay. Type of series: cell-based. The following applies: human, read-out: IG50.
For series [10], the target named is T7, ERalpha (estrogen receptor) (Homo sapiens, UniProt P03372).
T7 sequence (P03372 whole entry): T6 sequence (P03372 whole entry)
The series is described as follows: Agonist activity at ERalpha (unknown origin) expressed in human U2OS cells after 24 hrs by luciferase reporter gene assay relative to E2. The following applies: U2OS cells expressing ERalpha, read-out: Activity. It counts as cell-based.

Series [11] has as its target T5, 17-beta-hydroxysteroid dehydrogenase 14 (Homo sapiens). The series can be described thus: Inhibition of recombinant 17beta-HSD14 (unknown origin) expressed in Escherichia coli BL21 pLysS strain at 100 uM using E2 as substrate in presence of NAD measured continuously for 15 mins by fluorimetric method.

Each structure is given as a SMILES string. pKi: −log10 of the molar value. In brackets after ≈: the same amount, converted by molar mass. Activity calls are given as the source filed them. The calls are words filed in the database; no cut-off is given here.

Consider `Cc1cc(-c2ccc3ccc(C(=O)c4ccc(F)c(O)c4)nc3c2)ccc1O`, for which the inhibition in series [1] was 11%; in [4] it was 80%. This compound also displayed a solubility at 24 h, 200 µM in series [2] of 13 to 25 µM (≈ 4.85 to 9.33 µg/mL). Besides, the pKi in series [3] is 8.22. In series [5], the inhibition result is “inactive”.
In the case of `O=C(c1ccc(F)c(O)c1)c1ccc2ccccc2n1`, the values for the inhibition in [1], in series [6] and in [4] were 6%, 69% and 76%, respectively. Moreover, in [2], the solubility at 24 h, 200 µM is > 200 µM. In addition, the pKi in [3] was 7.92. The inhibition result in series [5] is “inactive”.
As for `O=C(c1ccc(F)c(O)c1)c1ccc2ccccc2c1`, the inhibition in series [1] amounted to 64%; in [4], 96%. This compound also showed a solubility at 24 h, 200 µM in series [2] of 25 to 50 µM (≈ 6.66 to 13.3 µg/mL). For the same compound, the pKi in series [3] was 8.22. Further, the inhibition entry in series [5] was “inactive”.
For `CN(c1ccc(F)c(O)c1)c1cccc(-c2cccc(O)c2F)n1` the same measures were 99%, 100%, > 200 µM, 7.38 and 19%.
For `Oc1cc(Nc2cccc(-c3cccc(O)c3F)n2)ccc1F` the same measures were 57%, 82%, > 200 µM, 7.33 and “inactive”.
Turning to `CN(C(=O)c1ccc(F)c(O)c1)c1cccc(-c2cccc(O)c2F)n1`, the pKi in [3] is 5.69.
Turning to `N#Cc1ccc2ccc(C(=O)c3ccc(F)c(O)c3)nc2c1`, the inhibition result in series [1] and in series [5] was “inactive” each time. The same compound showed a solubility at 24 h, 200 µM in series [2] of 25 to 50 µM (≈ 7.31 to 14.6 µg/mL). For the same compound, the pKi in series [3] was 8.05. This compound also returned an inhibition in series [4] of 56%. The Activity result in [7] is “Not Active”. For the same compound, in series [8], the viability at 72 h, 20 µM stood at 80%.
Consider `O=C(c1ccc(F)c(O)c1)c1ccc2cc(O)ccc2n1`, for which the inhibition in series [1] turned out to be 20%; in [4], 71%. In series [2], the solubility at 24 h, 200 µM is > 200 µM. Also, in series [3], the pKi is 6.92. Further, the inhibition entry in series [5] was “inactive”. Moreover, the GI50 at 72 h in series [9] was > 100 µM. In addition, in series [8], the viability at 72 h, 20 µM was found to be 80%.
`O=C(Nc1ccc(F)c(O)c1)c1cccc(-c2cccc(O)c2F)n1`: the pKi in series [3] is 6.47.
On to `O=C(c1ccc(F)c(O)c1)c1cccc(-c2cccc(O)c2F)n1`, for which the values for the inhibition in series [1] and in series [4] were 8% and 56%, respectively. Also, in [2], the solubility at 24 h, 200 µM is > 200 µM. In series [5], the inhibition entry is “inactive”. For the same compound, the Emax at 24 h in series [10] stood at 13%. Besides, the GI50 at 72 h in [9] is > 100 µM. For the same compound, the viability at 72 h, 20 µM in [8] turned out to be 80%.
Turning to `O=C(c1ccc(F)c(O)c1)c1ccc2ccc(-c3nnn[nH]3)cc2n1`, the inhibition result in series [1] and in series [5] was “inactive” throughout. In addition, in series [2], the solubility at 24 h, 200 µM was in the range of 50 to 100 µM (≈ 16.8 to 33.5 µg/mL). In addition, in series [3], the pKi is 8.00. Moreover, in series [4], the inhibition amounted to 52%. Also, the Activity result in series [7] is “Not Active”. In series [9], the GI50 at 72 h was > 100 µM. Moreover, in [8], the viability at 72 h, 20 µM stood at 80%.
Consider `O=C(Nc1cccc(-c2cccc(O)c2F)n1)c1ccc(F)c(O)c1`, for which the pKi in series [3] is 6.16.
In [2], `COc1cc(C(=O)c2ccc3ccccc3n2)ccc1F` displayed a solubility at 24 h, 200 µM of 100 to 200 µM (≈ 28.1 to 56.3 µg/mL). For the same compound, the inhibition in [11] came to 21%.
In the case of `C=C(c1ccc(F)c(O)c1)c1cccc(-c2cccc(O)c2F)n1`, the inhibition in series [1] worked out at 88%; in series [4], 100%. For the same compound, the solubility at 24 h, 200 µM in [2] is > 200 µM. For the same compound, the pKi in series [3] was 8.82. The inhibition entry in series [5] is “inactive”. Moreover, the GI50 at 72 h in series [9] is > 100 µM. For the same compound, the viability at 72 h, 20 µM in [8] was found to be 80%.
With `Nc1ccc2ccc(C(=O)c3ccc(F)c(O)c3)nc2c1`, the inhibition in [1] was determined as 21%; in [4], 83%. Besides, the solubility at 24 h, 200 µM in series [2] was > 200 µM. Besides, the pKi in series [3] is 7.47. Further, the inhibition result in [5] is “inactive”.
On to `Cc1ccc2nc(C(=O)c3ccc(F)c(O)c3)ccc2c1`, for which the inhibition in series [1] was 12%; in series [4] it was 78%. Further, the solubility at 24 h, 200 µM in [2] fell in the range of 25 to 50 µM (≈ 7.03 to 14.1 µg/mL). Moreover, the pKi in series [3] is 8.22. Also, in series [5], the inhibition result was “inactive”. In addition, the viability at 72 h, 20 µM in [8] is 80%.
Consider `Oc1cc(Oc2cccc(-c3cccc(O)c3F)n2)ccc1F`, for which the inhibition in series [1] was 69%; in [4] it was 100%; in series [5], 17%. Further, in [2], the solubility at 24 h, 200 µM was > 200 µM. Besides, in series [3], the pKi was 7.24.

What is called inhibition is the drop in the measured response relative to a control, in per cent. As usually defined, the solubility is the dissolved amount per volume that the medium holds. For orientation: pKi means the negative decadic logarithm of the Ki, by convention in mol/L.
